Experiments:
[1] = Biodistribution in rat organs and tissues (fluorescence); assay type: in vivo, Wistar rats; conditions: 0.6 mg/kg i.v.
Experimental: (x) Biodistribution. Wistar rats (n=2) were anesthetized and compound 5 of the invention (0.6 mg/kg) was injected into their tail vein. The control group (n=2) was not treated with the sensitizer. At 30 min and 24 h after injection, rats (one for each time-point), were sacrificed and samples of the indicated organs or tissues (heart, liver, lung, spleen, kidney, brain, testes, skin, muscle and fat) were collected into and weighed in pre-weighted vials, immediately frozen on dry ice and stored at […] in the dark until analyzed. For examination, each sample was thawed, weighed again, and homogenized (Polytron, Kinematica GmbH or Ultra-Turrax) in ice-cold water. The vials were then frozen in liquid nitrogen and lyophilized. The lyophilized samples were extracted with methanol (5-10 ml) in an amount equivalent to the tissue weight, and then vortexed and centrifuged. The supernatant was collected and analyzed and fluorescence measured as described in (ix) above. The fluorescence of methanol and of tissue extracts from control animals were used as blanks.

[2] = Pharmacokinetics in rat blood after i.v. injection (fluorescence); assay type: in vivo, Wistar rats
Experimental: (ix) Pharmacokinetics. Anesthetized Wistar rats (n=3 per each time-point) were i.v. injected with compound 5 of the invention (0.6 mg/kg). […] Control blood samples were collected from three untreated rats and treated accordingly. The test tubes containing the blood samples were weighed again in order to calculate the exact sample mass. The blood samples were then frozen in liquid nitrogen and lyophilized. The lyophilized samples were extracted with methanol (1 ml each), vortexed and centrifuged. The supernatant was collected and analyzed by fluorescence measurements (Spectrofluorimeter SLM-8000, Aminco USA). The fluorescence emission spectra were recorded in a range of 650-850 nm, with excitation at 520 nm. Fluorescence of methanol and untreated blood extracts were used as blanks. A calibration curve with known concentrations of the sensitizer was prepared.

E. coli = test: Phototoxicity on Gram-negative bacteria, colony counting; assay type: cell-based, E. coli XL-1
Experimental: (§1) (ii) Bacterial cultures. Bacteria of strains St. albus and E. coli XL-1 were cultured in liquid LB medium (E. coli in LB containing 12.5 μg tetracyclin/ml) to a final density of OD600 nm=0.5-0.9 (1 OD=8×10^8 bacteria/ml). The bacteria were spun down (4000×g, 5 min.) and resuspended in PBS.
(§2) (b) Bacterial. To determine the photodynamic efficacy, bacteria were diluted to aliquots of 300 μl containing about 10^7 bacteria, and incubated with increasing concentrations of sensitizer in plastic test tubes in the dark for 1 h at room temperature, and then illuminated at 70 mW/cm^2 for 15 min. Samples of the treated bacteria cultures were subsequently plated at different dilutions (50-200 bacteria/plate) on LB agar and cultured for 24 h at 37° C. for determination of bacterial survival by colony counting. Triplicate determinations were conducted and representative experiments are shown.
(§3) The phototoxicity of positively-charged compound 5 was tested on Gram-positive St. albus and Gram-negative E. coli bacteria in comparison to the negatively-charged Pd 3^1-oxo-15-methoxycarbonylmethyl-Rhodobacteriochlorin 13^1-(2-sulfoethyl)amide dipotassium salt (described in PCT/IL03/00973). Bacteria were incubated with increasing concentrations of the sensitizers for 1 h and illuminated or kept in the dark. […] Gram-positive bacteria St. albus, was 100 times more sensitive to compound 5 than Gram-negative E. coli. No phototoxicity was observed when bacteria were incubated and treated with the same sensitizers' concentration range without illumination (dark controls).

St. albus = test: Phototoxicity on Gram-positive bacteria, colony counting; assay type: cell-based
Experimental: as §1, §2, §3

C6 glioma xenografts = test: Photodynamic treatment (PDT) of C6 glioma xenografts; assay type: in vivo, CD1 nude mice
Experimental: (vii) Tumor implantation. Cultured C6 glioma cell monolayers were scraped in saline, centrifuged at 250 g for 5 min, resuspended in saline and subcutaneously injected (2×10^6 cells/mouse) into the back of CD1 nude mice. Tumors reached a treatment diameter of 6-8 mm within 2 weeks. The mice were sacrificed (according to the guidelines of the Weizmann Institute of Science) when tumors reached the diameter of ≧15 mm.
(xi) PDT Protocol. CD1 nude mice bearing C6 glioma (n=17) were anesthetized and compound 5 (0.3 mg/kg) was injected via the tail vein. The tumor area was immediately illuminated (drug-to-light time interval (DLTI)=0) transcutaneously for 15 min by 755 nm diode laser (CeramOptec, Germany) with light dose of 80 mW/cm^2 (light field diameter—14 mm). Following illumination the mice (n=12) were placed back in the cage. Tumor response (using local necrosis at day 8 post-PDT as end point) was recorded photographically, and tumor volume was assessed (Gleave et al., 1992.) Response was considered as partial when only a part of the illuminated tumor became necrotic. Mice were considered cured if they were tumor free 90 days after treatment. Continued tumor growth following PDT was scored as no response. Mice were sacrificed when tumor diameter reached 15 mm. The following controls were used: (i) dark control (n=3)-tumor-bearing mice i.v. injected with sensitizer but not illuminated; (ii) light control (n=2)-tumor-bearing mice not injected with sensitizer but illuminated; (iii) untreated control (n=2)-tumor-bearing mice not injected with sensitizer and not illuminated.
Based on the pharmacokinetic data described in Example 20 above, the treatment protocol for compound 5 was set to 15-min illumination immediately after injection of the sensitizer, using a dedicated medical laser matched to the peak absorption of 5 (CeramOptec, Germany, 755 nm). In order to test the drug efficiency, CD1 male nude mice (n=12) were treated with a dose of 0.3 mg/kg compound 5 and light intensity of 80 mW/cm^2. […] FIGS. 6B-6C are photographs of the tumor site of a mice injected with compound 5 but not illuminated and of a mice injected with saline and illuminated, respectively.
FIG. 7 depicts a Kaplan-Meier survival curve showing 80% survival for mice treated with compound 5 and illuminated (treatment, squares).

[3] = 1 h incubation, illuminated 15 min at 70 mW/cm^2, read-out: Kd (phototoxicity)

## 3^1-Oxo-15-methoxycarbonylmethyl-Rhodo-bacteriochlorin 13^1,17^3-di(2-N^3-trimethylammoniumethyl)amide dicitrate salt [Compound 5]
[1]; 30 min after injection
  levels of the sensitizer in organs: relatively high in the blood, kidneys and lungs
[1]; 24 h after injection
  level of the sensitizer in the blood: almost background level
  levels of the sensitizer in organs: significant levels were still found in the kidneys, liver and spleen
[2]; 24 h after i.v. administration
  clearance kinetics: bicompartmental distribution
[2]; within 30 min after i.v. injection (0.6 mg/kg)
  sensitizer cleared: about 60%
E. coli; 10 μM, illuminated
  death of E. coli: ~100%
E. coli; [3]
  phototoxic concentration: 1700 nM
St. albus
  sensitivity of St. albus relative to E. coli: 100 times
St. albus; [3]
  phototoxic killing concentration: 20 nM
C6 glioma xenografts; 0.3 mg/kg i.v., illuminated 15 min, 755 nm, 80 mW/cm^2
  survival (Kaplan-Meier survival curve): 80%
C6 glioma xenografts; C6 glioma xenografts in mice
  lower concentration causing tumor eradication than Pd-Bpheid or the negatively-charged 13^1-(2-sulfoethyl)amide dipotassium salt: 10 fold
C6 glioma xenografts; PDT-treated mouse, by day 32
  outcome at tumor site: the wound healed and the animal was cured
C6 glioma xenografts; PDT-treated mouse, day 14, 0.3 mg/kg, 80 mW/cm^2
  tumor necrosis: tumor necrosis was observed
C6 glioma xenografts; all animals of full treatment group, day 1 after treatment
  local reaction after treatment: developed inflammation and edema
C6 glioma xenografts; injected with compound but not illuminated
  tumor necrosis, dark control: No necrosis of the tumor

Reference: patent publication US8207154B2, “Catatonic bacteriochlorophyll derivatives” (Yeda Research and Development Co., Ltd., priority 2005, dated 2012)
